In ChEMBL document CHEMBL3763135, “Synthesis and evaluation of thiophene-based guanylhydrazones (iminoguanidines) efficient against panel of voriconazole-resistant fungal isolates” (Bioorg Med Chem, 2016):
Values after ≈ are worked out from the molar mass of the structure shown. Active and inactive are the calls of the source. The rule behind the calls is not given here.

Key:
Aspergillus fumigatus = assay: Antifungal activity against Aspergillus fumigatus ATCC 13073 by broth dilution method; type: functional
Danio rerio [1] = species: Danio rerio; assay: Toxicity against zebrafish embryo assessed as unhatched embryos at 2.5 ug/ml measured at 96 hrs post fertilization by inverted microscopic analysis; type: organism-based; conditions: in vivo
Pichia kudriavzevii [2] = assay: Antibiofilm activity against Pichia kudriavzevii ATCC 34135 assessed as disruption of preformed biofilm after 24 hrs by concanavalin A-FITC-staining based fluorescence microscopic analysis; type: functional
Danio rerio [3] = species: Danio rerio; assay: Toxicity against zebrafish embryo assessed as teratogenic embryos at 2.5 ug/ml measured at 96 hrs post fertilization by inverted microscopic analysis; type: organism-based; conditions: in vivo
Danio rerio [4] = species: Danio rerio; assay: Toxicity against zebrafish embryo assessed as normal embryos at 10 ug/ml measured at 96 hrs post fertilization by inverted microscopic analysis; type: organism-based; conditions: in vivo
Danio rerio [5] = species: Danio rerio; assay: Toxicity against zebrafish embryo assessed as growth retardation at 5 ug/ml measured at 96 hrs post fertilization by inverted microscopic analysis; type: organism-based; conditions: in vivo
[6] = Toxicity against zebrafish embryo assessed as dead embryos at 2.5 ug/ml measured at 96 hrs post fertilization by inverted microscopic analysis; type: organism-based, Danio rerio; conditions: read-out: Activity
Danio rerio [7] = species: Danio rerio; assay: Toxicity against zebrafish embryo assessed as unhatched embryos at 5 ug/ml measured at 96 hrs post fertilization by inverted microscopic analysis; type: organism-based; conditions: in vivo
Danio rerio [8] = species: Danio rerio; assay: Toxicity against zebrafish embryo assessed as effect on heart beat at 5 ug/ml measured at 96 hrs post fertilization by inverted microscopic analysis; type: organism-based; conditions: in vivo
[9] = Toxicity against zebrafish embryo assessed as dead embryos at 50 ug/ml measured at 96 hrs post fertilization by inverted microscopic analysis; type: organism-based, Danio rerio; conditions: read-out: Activity
Danio rerio [10] = species: Danio rerio; assay: Toxicity against zebrafish embryo assessed as normal embryos at 50 ug/ml measured at 96 hrs post fertilization by inverted microscopic analysis; type: organism-based; conditions: in vivo
Danio rerio [11] = species: Danio rerio; assay: Toxicity against zebrafish embryo assessed as teratogenic embryos at 5 ug/ml measured at 96 hrs post fertilization by inverted microscopic analysis; type: organism-based; conditions: in vivo
Danio rerio [12] = species: Danio rerio; assay: Toxicity against zebrafish embryo assessed as effect on otoliths at 5 ug/ml measured at 96 hrs post fertilization by inverted microscopic analysis; type: organism-based; conditions: in vivo
Danio rerio [13] = species: Danio rerio; assay: Toxicity against zebrafish embryo assessed as normal embryos at 25 ug/ml measured at 96 hrs post fertilization by inverted microscopic analysis; type: organism-based; conditions: in vivo
Candida albicans [14] = assay: Antibiofilm activity against Candida albicans ATCC 10231 assessed as disruption of preformed biofilm after 24 hrs by concanavalin A-FITC-staining based fluorescence microscopic analysis; type: functional
Danio rerio [15] = species: Danio rerio; assay: Toxicity against zebrafish embryo assessed as effect on notochord at 5 ug/ml measured at 96 hrs post fertilization by inverted microscopic analysis; type: organism-based; conditions: in vivo
Danio rerio [16] = species: Danio rerio; assay: Toxicity against zebrafish embryo assessed as effect on tail tip at 5 ug/ml measured at 96 hrs post fertilization by inverted microscopic analysis; type: organism-based; conditions: in vivo
Candida albicans [17] = assay: Antifungal activity against Candida albicans CA5 assessed as fungal growth at sub-MIC measured over 12 hrs by time-kill dependence-based spectrophotometric analysis relative to DMSO control; type: functional
[18] = Toxicity against zebrafish embryo measured at 96 hrs post fertilization by inverted microscopic analysis; type: organism-based, Danio rerio; conditions: zebrafish embryos
Danio rerio [19] = species: Danio rerio; assay: Toxicity against zebrafish embryo assessed as head malformation at 2.5 ug/ml measured at 96 hrs post fertilization by inverted microscopic analysis; type: organism-based; conditions: in vivo
Danio rerio [20] = species: Danio rerio; assay: Toxicity against zebrafish embryo assessed as effect on eyes at 2.5 ug/ml measured at 96 hrs post fertilization by inverted microscopic analysis; type: organism-based; conditions: in vivo
Danio rerio [21] = species: Danio rerio; assay: Toxicity against zebrafish embryo assessed as effect on eyes at 5 ug/ml measured at 96 hrs post fertilization by inverted microscopic analysis; type: organism-based; conditions: in vivo
Danio rerio [22] = assay: Toxicity against zebrafish embryo assessed as pericardial edema at 5 ug/ml measured at 96 hrs post fertilization by inverted microscopic analysis; type: organism-based; conditions: in vivo
[23] = Toxicity against zebrafish embryo assessed as dead embryos at 25 ug/ml measured at 96 hrs post fertilization by inverted microscopic analysis; type: organism-based, Danio rerio; conditions: read-out: Activity
[24] = Toxicity against zebrafish embryo assessed as dead embryos at 10 ug/ml measured at 96 hrs post fertilization by inverted microscopic analysis; type: organism-based, Danio rerio; conditions: read-out: Activity
Danio rerio [25] = species: Danio rerio; assay: Toxicity against zebrafish embryo assessed as effect on heart beat at 2.5 ug/ml measured at 96 hrs post fertilization by inverted microscopic analysis; type: organism-based; conditions: in vivo
Microsporum canis = assay: Antifungal activity against Microsporum canis DMT2 by broth dilution method; type: functional
Danio rerio [26] = species: Danio rerio; assay: Toxicity against zebrafish embryo assessed as effect on notochord at 2.5 ug/ml measured at 96 hrs post fertilization by inverted microscopic analysis; type: organism-based; conditions: in vivo
Danio rerio [27] = assay: Toxicity against zebrafish embryo assessed as pericardial edema at 2.5 ug/ml measured at 96 hrs post fertilization by inverted microscopic analysis; type: organism-based; conditions: in vivo
[28] = Induction of membrane damage in PC/PS liposome assessed as calcein release at MIC after 30 mins by fluorescence-based liposome leakage assay; type: functional
[29] = tested on: Trichophyton mentagrophytes; assay: Antifungal activity against Trichophyton mentagrophytes DMT4 by broth dilution method; type: functional
Danio rerio [30] = species: Danio rerio; assay: Toxicity against zebrafish embryo assessed as normal embryos at 5 ug/ml measured at 96 hrs post fertilization by inverted microscopic analysis; type: organism-based; conditions: in vivo
Danio rerio [31] = assay: Toxicity against zebrafish embryo assessed as yolk edema at 2.5 ug/ml measured at 96 hrs post fertilization by inverted microscopic analysis; type: organism-based; conditions: in vivo
Candida albicans [32] = assay: Antifungal activity against Candida albicans ATCC 10231 by broth dilution method; type: functional
Danio rerio [33] = species: Danio rerio; assay: Toxicity against zebrafish embryo assessed as skeletal deformities at 2.5 ug/ml measured at 96 hrs post fertilization by inverted microscopic analysis; type: organism-based; conditions: in vivo
Danio rerio [34] = species: Danio rerio; assay: Toxicity against zebrafish embryo assessed as effect on blood circulation at 2.5 ug/ml measured at 96 hrs post fertilization by inverted microscopic analysis; type: organism-based; conditions: in vivo
Candida parapsilosis [35] = assay: Antifungal activity against Candida parapsilosis C27 by broth dilution method; type: functional
Danio rerio [36] = species: Danio rerio; assay: Toxicity against zebrafish embryo assessed as teratogenic embryos at 10 ug/ml measured at 96 hrs post fertilization by inverted microscopic analysis; type: organism-based; conditions: in vivo
Danio rerio [37] = assay: Toxicity against zebrafish embryo assessed as yolk edema at 5 ug/ml measured at 96 hrs post fertilization by inverted microscopic analysis; type: organism-based; conditions: in vivo
[38] = Toxicity against zebrafish embryo assessed as dead embryos at 5 ug/ml measured at 96 hrs post fertilization by inverted microscopic analysis; type: organism-based, Danio rerio; conditions: read-out: Activity
Candida albicans [39] = assay: Antifungal activity against Candida albicans CA5 by broth dilution method; type: functional
Danio rerio [40] = species: Danio rerio; assay: Toxicity against zebrafish embryo assessed as effect on tail tip at 2.5 ug/ml measured at 96 hrs post fertilization by inverted microscopic analysis; type: organism-based; conditions: in vivo
Candida albicans [41] = assay: Antifungal activity against Candida albicans CA5 assessed as fungal growth at sub-MIC measured after 24 hrs by time-kill dependence-based spectrophotometric analysis relative to DMSO control; type: functional, organism-based
Candida albicans [42] = assay: Antibiofilm activity against Candida albicans assessed as inhibition of Spider medium-induced hyphae formation at sub-MIC after 24 hrs by propidium iodide and FITC-conjugated concanavaline A staining based fluorescence microscopy; type: functional, organism-based
Danio rerio [43] = species: Danio rerio; assay: Toxicity against zebrafish embryo assessed as effect on blood circulation at 5 ug/ml measured at 96 hrs post fertilization by inverted microscopic analysis; type: organism-based; conditions: in vivo
Danio rerio [44] = species: Danio rerio; assay: Toxicity against zebrafish embryo assessed as growth retardation at 2.5 ug/ml measured at 96 hrs post fertilization by inverted microscopic analysis; type: organism-based; conditions: in vivo
Danio rerio [45] = species: Danio rerio; assay: Toxicity against zebrafish embryo assessed as skeletal deformities at 5 ug/ml measured at 96 hrs post fertilization by inverted microscopic analysis; type: organism-based; conditions: in vivo
Danio rerio [46] = species: Danio rerio; assay: Toxicity against zebrafish embryo assessed as normal embryos at 2.5 ug/ml measured at 96 hrs post fertilization by inverted microscopic analysis; type: organism-based; conditions: in vivo
Danio rerio [47] = species: Danio rerio; assay: Toxicity against zebrafish embryo assessed as teratogenic embryos at 50 ug/ml measured at 96 hrs post fertilization by inverted microscopic analysis; type: organism-based; conditions: in vivo
Candida parapsilosis [48] = assay: Antibiofilm activity against Candida parapsilosis C27 assessed as disruption of preformed biofilm after 24 hrs by concanavalin A-FITC-staining based fluorescence microscopic analysis; type: functional
Pichia kudriavzevii [49] = assay: Antifungal activity against Candida krusei ATCC 34135 by broth dilution method; type: functional
Fusarium oxysporum = assay: Antifungal activity against Fusarium oxysporum AB18 by broth dilution method; type: functional
Danio rerio [50] = species: Danio rerio; assay: Toxicity against zebrafish embryo assessed as head malformation at 5 ug/ml measured at 96 hrs post fertilization by inverted microscopic analysis; type: organism-based; conditions: in vivo
Danio rerio [51] = species: Danio rerio; assay: Toxicity against zebrafish embryo assessed as teratogenic embryos at 25 ug/ml measured at 96 hrs post fertilization by inverted microscopic analysis; type: organism-based; conditions: in vivo
Danio rerio [52] = species: Danio rerio; assay: Toxicity against zebrafish embryo assessed as effect on otoliths at 2.5 ug/ml measured at 96 hrs post fertilization by inverted microscopic analysis; type: organism-based; conditions: in vivo
[53] = Hemolytic effect in sheep RBC assessed as release of hemoglobin at 40 ug/ml after 1 hr; type: ADME, cell-based, Ovis aries; conditions: erythrocyte

For C[C@@H](c1ncncc1F)[C@](O)(Cn1cncn1)c1ccc(F)cc1F [VORICONAZOLE], the MIC (Aspergillus fumigatus) was 0.06 mg/L (≈ 0.172 µM), the Activity (Danio rerio [1]) was 0% and the MBEC (Pichia kudriavzevii [2]) was 250 µg/mL. The Activity (Danio rerio [3]) was 63.33%, the Activity (Danio rerio [4]) was 0% and the Activity (Danio rerio [5]) was 100%. The mortality at 96 h, 2.5 ug/ml [6] was 36.7%, the Activity (Danio rerio [7]) was 0% and the Activity (Danio rerio [8]) was 100%. For the same molecule, the mortality at 96 h, 50 ug/ml [9] was 100%, the Activity (Danio rerio [10]) was 0% and the Activity (Danio rerio [11]) was 20%. For the same molecule, the Activity (Danio rerio [12]) was 100%, the Activity (Danio rerio [13]) was 0% and the MBEC (Candida albicans [14]) was 250 µg/mL. For the same molecule, the Activity (Danio rerio [15]) was 0%, the Activity (Danio rerio [16]) was 0% and the Activity (Candida albicans [17]) was “Active”. For the same molecule, the LC50 at 96 h [18] was 3.1 mg/L (≈ 8.87 µM), the Activity (Danio rerio [19]) was 100% and the Activity (Danio rerio [20]) was 100%. It also gave an Activity (Danio rerio [21]) of 100%, an Activity (Danio rerio [22]) of 100% and a mortality at 96 h, 25 ug/ml [23] of 100%. The mortality at 96 h, 10 ug/ml [24] was 100%, the Activity (Danio rerio [25]) was 0% and the MIC (Microsporum canis) was 0.5 mg/L (≈ 1.43 µM). It also gave an Activity (Danio rerio [26]) of 0%, an Activity (Danio rerio [27]) of 100% and an Activity [28] of 12%. For the same molecule, the MIC [29] was 0.25 mg/L (≈ 0.716 µM), the Activity (Danio rerio [30]) was 0% and the Activity (Danio rerio [31]) was 0%. It also gave an MIC (Candida albicans [32]) of 0.5 mg/L (≈ 1.43 µM), an Activity (Danio rerio [33]) of 94.74% and an Activity (Danio rerio [34]) of 0%. The MIC (Candida parapsilosis [35]) was “inactive”, the Activity (Danio rerio [36]) was 0% and the Activity (Danio rerio [37]) was 100%. For the same molecule, the mortality at 96 h, 5 ug/ml [38] was 80%, the MIC (Candida albicans [39]) was “inactive” and the Activity (Danio rerio [40]) was 0%. The Activity (Candida albicans [41]) was “inactive”, the Activity (Candida albicans [42]) was “Active” and the Activity (Danio rerio [43]) was 100%. The Activity (Danio rerio [44]) was 100%, the Activity (Danio rerio [45]) was 100% and the Activity (Danio rerio [46]) was 0%. For the same molecule, the Activity (Danio rerio [47]) was 0%, the MBEC (Candida parapsilosis [48]) was “inactive” and the MIC (Pichia kudriavzevii [49]) was 0.06 mg/L (≈ 0.172 µM). The MIC (Fusarium oxysporum) was “inactive”, the Activity (Danio rerio [50]) was 100% and the Activity (Danio rerio [51]) was 0%. The Activity (Danio rerio [52]) was 100%.
Work on NYSTATIN yielded an Activity [53] of 35%.
